These results are taken from US20240001012A1, “SOLUTIONS FOR […] OF A DRUG AD[…] […] AND DOSING ALGORITHM THEREFOR” (DREXEL UNIVERSITY, priority 2017, published 2024).

The conditions of series [1]: escalation in CRRT intensity from hemofiltration to hemodiafiltration; Joy et al. 1998; cited from earlier work.
Series [2] in a line: Inspection of CRRT solution(s) and circuit for precipitation and clotting after mixing vancomycin. Particulars: on mixing the vancomycin in the CRRT solution. From the text: Upon initiation of CRRT, the CRRT circuit may be inspected and evaluated on an hourly basis according to current standards of care. A part of the hourly standard of care inspection may involve inspection of the CRRT solution for precipitation and crystallization. This assessment should continue for the period of time the patient is receiving CRRT and vancomycin or other antibiotics is mixed in the CRRT solution.
(§1) Prismaflex machine was initially primed with two 1-L bags of normal saline and 5,000 units of heparin. The machine was then primed with normal saline, 5% albumin, or a blood exchange (blood is transfused to the patient as the prime is wasted) depending on the percent extracorporeal volume of the patient with a dialysis solution utilizing HF1000, AN69 dialysis filters. Commercially available dialysate and replacement solutions were used for all CRRT patients. The CRRT circuit and solutions were inspected and observed for adverse events, such as specifically for precipitation and clotting. The CRRT solution(s) and circuit were visually inspected after addition of the CRRT circuit prior to the final connection to the patient.

Series [3] can be described thus: Stability of vancomycin with components of the CRRT solution. The series is classed as physicochemical. Particulars: in CRRT solution. From the text: The CRRT or like solution may be prepared at the time it is needed following current standard operating procedures for sterile product compounding or as discussed below in greater detail. The amount of vancomycin, for instance, to be added to the solution is described below in greater detail. Accordingly, this mixed solution is provided for being infused for the duration it is prescribed for CRRT. […] Other drugs may be stable for less or more time.

Series [4] in a line: Serum vancomycin plateau level in patients receiving continuous infusion vancomycin mixed in the CRRT solution. The series is classed as in vivo, human. The procedure: According to embodiments disclosed herein, drug concentrations in the solution(s) are adjusted in vitro based on an initial serum plateau level, and subsequent levels are thereafter obtained based on these changes. […] See step 70.
In this study, CRRT was performed using a Prismaflex System machine (Gambro, Lakewood, CO). The mode of dialysis, continuous venovenous hemofiltration or hemodiafiltration was dictated by an attending nephrologist prescribing the dialysis. The
as §1
The median eGFR on ICU admission was 39.9 mL/min/1.73 m 2 (25th to 75th IQR, 25.8-53.4 mL/min/1.73 m 2) compared with a median eGFR of 26.7 mL/min/1.73 m 2 (25th to 75th IQR, 18.8-42.7 mL/min/1.73 m 2) with the initiation of CRRT.

The subject of another series is Streptococcus pneumoniae. Kind of series: Follow-up cultures in patient 4 on vancomycin via CRRT. The series is classed as in vivo, human. Particulars: vancomycin continued 2 days. From the text: (§2) Only two patients, patients 4 and 9, had cultures that were positive for a gram-positive organism. […] Subsequent cultures obtained from the blood and the respiratory system were negative. The isolate of Streptococcus pneumoniae was penicillin sensitive, and the patient was changed to ampicillin for the remainder of the treatment course.

In series [5] the test system is methicillin-sensitive Staphylococcus aureus. Kind of series: Follow-up cultures in patient 9 on vancomycin via CRRT. The series is classed as in vivo, human. Particulars: day 6 of vancomycin therapy, blood culture also negative.
Description: as §2

As to `CN[C@H](CC(C)C)C(=O)N[C@H]1C(=O)N[C@@H](CC(N)=O)C(=O)N[C@H]2C(=O)N[C@H]3C(=O)N[C@H](C(=O)N[C@H](C(=O)O)c4cc(O)cc(O)c4-c4cc3ccc4O)[C@H](O)c3ccc(c(Cl)c3)Oc3cc2cc(c3O[C@@H]2O[C@H](CO)[C@@H](O)[C@H](O)[C@H]2O[C@H]2C[C@](C)(N)[C@H](O)[C@H](C)O2)Oc2ccc(cc2Cl)[C@H]1O` [Vancomycin, vancomycin], the “increase in vancomycin clearance” value in series [1] is “greater than or equal to 30%”. The “adverse events regarding precipitation of vancomycin with CRRT solution(s) or circuit” value in series [2] is recorded as “no adverse events were observed”. For the same molecule, in series [3], the “stable with components of the CRRT solution” value was “at least 96 hours”. Moreover, the “median (25th to 75th IQR) vancomycin serum plateau concentration” value in series [4] (11 patients, median solution concentration 25 mg/L) is 21.8 (20.9-25). Moreover, in series [4] (all levels of 11 patients), the “Vancomycin Level, IQR, 25” value was determined as 20.9 µg/mL; the “Vancomycin Level, IQR, 75” value is 25 µg/mL; the “Vancomycin Level, Min” value turned out to be 12.9 µg/mL. Besides, the “Vancomycin Level, Mean” value in series [4] (all levels of 11 patients, mean CRRT solution concentration 26.5 μg/mL) came to 22.3 µg/mL. For the same molecule, the “Vancomycin Level, Median” value in series [4] (all levels of 11 patients, median CRRT solution concentration 25 μg/mL) was 21.8 µg/mL. In addition, in series [4] (all patients, regardless of CRRT modality, dose and flow rate), the “attainment of therapeutic vancomycin serum plateau levels” value is given as “all patients achieved therapeutic vancomycin serum plateau levels”. In addition, the concentration at 8 h in series [4] (human, serum, other: continuous infusion mixed in the CRRT solution, the one patient below 15 mg/L at 8 hours) amounted to 12900 ng/mL. In addition, in series [4] (same patient, within 16 hours of starting CRRT), the “therapeutic serum level after adjustment of the CRRT solution concentration” value worked out at 23.5 mg/L. In series [4] (ten of eleven patients, within 8 hours of starting mixing vancomycin into the CRRT solution, target 15-30 mg/L), the “patients achieving a therapeutic serum vancomycin level within 8 hours” value amounted to 91%. For the same molecule, the “subsequent cultures from blood and respiratory system” value in the series with Streptococcus pneumoniae is listed as “negative”. For the same molecule, the repeat respiratory culture entry in series [5] was “negative”.
